Test results from patent US20050054629A1, “Compounds and methods of treating cell proliferative diseases” (priority 2002, published 2005).

Key:
H460 lung carcinoma = experiment: Cytotoxicity assay (MTT), 6 days; type: cell-based; conditions: Homo sapiens, NCI-H460, 144 h, 6 days of treatment, read-out: Toxicity 6d (IC 50, μM) H460
Description: (§1) Four human tumoral cell lines, namely HCT116 colon adenocarcinoma, H460 lung carcinoma, MCF-7 and MDA-MB-231 breast carcinoma cell lines, and three immortalized but non tumorigenic cell lines, namely NIH3T3 mouse fibroblasts and human breast-derived MCF10-A and MRC-5 were purchased at ATCC and cultured according to their recommendations. In order to determine the cytotoxicity associated with one compound, a microculture tetrazolium assay (MTT), as described by Carmichael et al (Cancer Res, 1996) with modifications, was used. Briefly, 5.10^3 or 2.10^4 cells were seeded per well in 24-well plates 24 hours before drug addition. Cells were treated with 0, 1, 10, 17.5, 25 and 50 μM of compound solubilized in DMSO, adjusting the total volume of DMSO (Dimethylsulfoxide) to 1%. Forty-eight hours or 6 days after treatment, the medium was replaced by PBS containing 0.5 mg/ml MTT (Sigma) and cells were incubated for 3 more hours at 37° C. before solubilization of formazan crystals in 100% DMSO. Absorbance was measured using a spectrophotometer at a wavelength of 550 nm. Cell surviving fraction and 50% inhibitory concentration were calculated. All assays were performed in triplicate.

MCF-7 breast carcinoma = experiment: Cytotoxicity assay (MTT), 6 days; type: cell-based; conditions: Homo sapiens, MCF7, 144 h, 6 days of treatment, read-out: Toxicity 6d (IC 50, μM) MCF7
Description: as §1

[1] = system: MDA-MB-231 breast carcinoma; experiment: Cytotoxicity assay (MTT), 6 days; type: cell-based; conditions: Homo sapiens, MDA-MB-231, 144 h, 6 days of treatment, read-out: Toxicity 6d (IC 50, μM) MDA231
Description: as §1

[2] = system: HCT116 colon adenocarcinoma; experiment: Cytotoxicity assay (MTT), 6 days; type: cell-based, human; conditions: Homo sapiens, HCT-116, 144 h, 6 days of treatment, read-out: Toxicity 6d (IC 50, μM) HCT116
Description: as §1

NIH3T3 mouse fibroblasts = experiment: Cytotoxicity assay (MTT), 6 days; type: cell-based; conditions: NIH3T3, 144 h, 6 days of treatment, read-out: Toxicity 6d (IC 50, μM) NIH3T3
Description: as §1

MDA-MB-231 cells = experiment: Matrigel invasion assay (Boyden chamber); type: cell-based, human; conditions: MDA-MB-231, Boyden chamber, matrigel
Experimental: Chemoinvasion assay was performed in Boyden chamber as described by Albini et al (Cancer Res, 1987) with some modifications. Polycarbonate membranes with 8 μm pores were coated with matrigel (125 μg/cm^2) at room temperature for 48 h. Two hours before experiments, the matrix was […] with serum-free medium containing 0.1% BSA.
One day after seeding, 10^6 MDA-MB-231 cells were treated overnight with different concentrations of compounds (1, 10, 17.5, 25 and 50 μM). Cells were collected with Versene (Invitrogen), counted with trypan blue exclusion, rinsed twice in serum-free medium containing 0.1% BSA and resuspended in serum-free medium containing 0.1% BSA plus the appropriate concentration of compound. 10^5 treated cells were placed in the upper chamber. Medium containing 10% of FBS plus the appropriate concentration of compound was placed in the lower chamber as a chemoattractant. The Boyden chamber was incubated 6 hours at 37° C. before the cells were fixed and stained with Diff-Quick (Dade-Berhing). Cells on the upper part of the filters were removed using a cotton swab. Cells on the underside of the filters were visualised and counted under light microscope.

cell architecture = experiment: Cell architecture modification, phase contrast; type: cell-based; set-up: key: −: no effect of the compound was observed; +: an effect of the compound was observed

| melting point | Structure (SMILES) | IC50 (H460 lung carcinoma) [µM] | IC50 (MCF-7 breast carcinoma) [µM] | IC50 [1] [µM] | IC50 [2] [µM] | further results |
| --- | --- | --- | --- | --- | --- | --- |
|  | O=C(O)c1cc(=O)c(OCCCCCOc2ccc(Cl)c(Cl)c2)co1 [EH6600, 5-[5-(3,4-Dichlorophenyloxy)pentyloxy]-4-oxo-4H-pyran-2-carboxylic acid] | > 50 | 30 | > 25 | > 50 |  |
|  | C/C=C/c1oc(C(=O)O)cc(=O)c1OCCCCCOc1ccc(Cl)c(Cl)c1 [EH10501] | > 50 | > 50 | > 50 | > 50 | IC50 (NIH3T3 mouse fibroblasts): > 50 µM |
|  | C/C=C/c1oc(C(=O)O)cc(=O)c1OCCCCCOc1ccccc1CCC [EH15301, (E)-2-(Propen-1-yl)-3-[5-(2-propylphenyloxy)pentyloxy]-4-oxo-4H-pyran-6-carboxylic acid] | > 50 | > 50 | > 50 | > 50 | IC50 (NIH3T3 mouse fibroblasts): > 50 µM |
|  | O=C(O)c1cc(=O)c(OCCCCCOc2cccc(Cl)c2)co1 [EH15700, 5-[5-(3-Chlorophenyloxy)pentyloxy]-4-oxo-4H-pyran-2-carboxylic acid] | > 50 | > 50 | 20 | > 50 |  |
|  | C/C=C/c1oc(C(=O)O)cc(=O)c1OCCCCCOc1ccc(Cl)cc1 [EH17401, (E)-3-[5-(4-Chlorophenyloxy)pentyloxy]-2-(propen-1-yl)-4-oxo-4H-pyran-6-carboxylic acid] | > 50 | > 50 | > 50 | > 50 | IC50 (NIH3T3 mouse fibroblasts): > 50 µM |
|  | O=C(O)c1cc(=O)c(OCCCCCOc2ccc(Cl)cc2)co1 [EH17600, 5-[5-(4-Chlorophenyloxy)pentyloxy]-4-oxo-4H-pyran-2-carboxylic acid] | > 50 | 17.5 | > 25 | > 50 |  |
|  | C/C=C/c1oc(C(=O)O)cc(=O)c1OCCCCCOc1cccc(Cl)c1 [EH18401, (E)-3-[5-(3-Chlorophenyloxy)pentyloxy]-2-(propen-1-yl)-4-oxo-4H-pyran-6-carboxylic acid] | > 50 | > 50 | > 50 | > 50 | IC50 (NIH3T3 mouse fibroblasts): > 50 µM |
|  | CCOc1ccccc1OCCCCCOc1coc(CO)cc1=O [EH18601, 5-[5-(2-Ethyloxyphenyloxy)pentyloxy]-2-(hydroxymethyl)-4H-pyran-4-one] | 25 | 15 | > 50 | 50 | IC50 (NIH3T3 mouse fibroblasts): > 50 µM; Invasion (MDA-MB-231 cells): No effect; Cell architecture modification phase contrast (cell architecture): − |
|  | O=C(O)c1cc(=O)c(OCCCCOc2ccc(Cl)c(Cl)c2)co1 [EH20700, 5-[4-(3,4-Dichlorophenyloxy)butyloxy] oxo-4H-pyran-2-carboxylic acid] | > 50 | > 50 | > 50 | > 50 |  |
|  | C/C=C/c1oc(C(=O)O)cc(=O)c1OCCCCCOc1ccc(Cl)c(Cl)c1CCC [EH22501, (E)-3-[5-(3,4-Dichloro-2-propylphenyloxy)pentyloxy]-2-(propen-1-yl)-4-oxo-4H-pyran-6-carboxylic acid] | > 50 | > 50 | 50 | > 50 | IC50 (NIH3T3 mouse fibroblasts): > 50 µM |
|  | CCCc1ccccc1OCCCCCOc1coc(C(=O)O)cc1=O [EH26900, 5-[5-(2-Propylphenyloxy)pentyloxy]-4-oxo-4H-pyran-2-carboxylic acid] | > 50 | > 50 | > 50 | > 50 |  |
|  | CCCc1c(OCCCCCOc2coc(C(=O)O)cc2=O)ccc(Cl)c1Cl [EH27900] | > 50 | 40 | > 25 | > 50 |  |
| 215 to 220 °C | O=C(OCc1cc(=O)c(OCCCCCn2ccc3ccccc32)co1)c1ccc(Cl)cc1 [EHT 0078, 4-Chloro-benzoic acid 5-(5-indol-1-yl-pentyloxy)-4-oxo-4H-pyran-2-ylmethyl ester] |  |  |  |  |  |
| 81 to 83 °C | CCNC(=O)OCc1cc(=O)c(OCCCCCn2ccc3ccccc32)co1 [EHT 1120, Ethyl-carbamic acid 5-(5-indol-1-yl-pentyloxy)-4-oxo-4H-pyran-2-ylmethyl ester] |  |  |  |  |  |
| 170 to 171 °C | O=C(Nc1ccc(Cl)cc1)OCc1cc(=O)c(OCCCCCn2ccc3ccccc32)co1 [EHT 2232, (4-Chloro-phenyl)-carbamic acid 5-(5-indol-1-yl-pentyloxy)-4-oxo-4H-pyran-2-ylmethyl ester] |  |  |  |  |  |
| 62 to 66 °C | O=C(OCc1cc(=O)c(OCCCCCn2ccc3ccccc32)co1)C1CCCCC1 [EHT 2253, Cyclohexanecarboxylic acid 5-(5-indol-1-yl-pentyloxy)-4-oxo-4H-pyran-2-ylmethyl ester] |  |  |  |  |  |
| 77 to 79 °C | CCCc1c(Cl)cc(Cl)cc1OCCCCCOc1coc(CO)cc1=O [EHT 2991] |  |  |  |  |  |
| 123 to 125 °C | C/C=C/c1oc(CO)cc(=O)c1OCCCCCOc1ccc(C#N)c(F)c1 [EHT 4112, (E)-2-Fluoro-4-[5-(6-hydroxymethyl-4-oxo-2-propenyl-4H-pyran-3-yloxy)-pentyloxy]-benzonitrile] |  |  |  |  |  |
| 103 to 105 °C (dec.) | O=C(OCc1cc(=O)c(OCCCCCn2ccc3ccccc32)co1)c1ccoc1 [EHT 4167, Furan-3-carboxylic acid 5-(5-indol-1-yl-pentyloxy)-4-oxo-4H-pyran-2-ylmethyl ester] |  |  |  |  |  |
| 150 °C (dec.) | O=C(Nc1ccccc1)OCc1cc(=O)c(OCCCCCn2ccc3ccccc32)co1 [EHT 4902, Phenyl-carbamic acid 5-(5-indol-1-yl-pentyloxy)-4-oxo-4H-pyran-2-ylmethyl ester] |  |  |  |  |  |
| 90 to 92 °C | C/C=C/c1oc(CO)cc(=O)c1OCCCCCOc1cc(C(F)(F)F)cc(C(F)(F)F)c1 [EHT 5403, (E)-3-[5-(3,5-Bis-trifluoromethyl-phenoxy)-pentyloxy]-6-hydroxymethyl-2-propenyl-4H-pyran-4-one] |  |  |  |  |  |
| 98 to 100 °C | C=CCc1cc(Cl)ccc1OCCCCCOc1coc(CO)cc1=O [EHT 5431, 5-[5-(2-Allyl-4-chloro-phenoxy)-pentyloxy]-2-hydroxymethyl-4H-pyran-4-one] |  |  |  |  |  |
| 92 to 94 °C | CCCc1cc(Cl)ccc1OCCCCCOc1coc(CO)cc1=O [EHT 6152, 5-[5-(4-Chloro-2-propyl-phenoxy)pentyloxy]-2-hydroxymethyl-4H-pyran-4-one] |  |  |  |  |  |
| 71 to 73 °C | O=C(OCc1cc(=O)c(OCCCCCn2ccc3ccccc32)co1)c1ccccc1 [EHT 6517, Benzoic acid 5-(5-indol-1-yl-pentyloxy)-4-oxo-4H-pyran-2-ylmethyl ester] |  |  |  |  |  |
| 59 to 61 °C | C=CCc1c(Cl)cc(Cl)cc1OCCCCCOc1coc(CO)cc1=O [EHT 6978, 5-[5-(2-Allyl-3,5-dichloro-phenoxy)-pentyloxy]-2-hydroxymethyl-4H-pyran-4-one] |  |  |  |  |  |
| 86 to 87 °C | C/C=C/c1oc(CO)cc(=O)c1OCCCCCOc1ccc(F)c(F)c1 [EHT 8307] |  |  |  |  |  |
| 91 to 93 °C | C/C=C/c1oc(CO)cc(=O)c1OCCCCCOc1cc(Cl)cc(Cl)c1CCC [EHT 9916, (E)-3-[5-(3,5-Dichloro-2-propyl-phenoxy)-pentyloxy]-6-hydroxymethyl-2-propenyl-4H-pyran-4-one] |  |  |  |  |  |
